# Several values for one entry are separate records, joined by “and”; a condition that tells them apart may be missing. Equal values may be shown once.
# Test system: DU145-TxR
# Test: SRB cell viability assay, docetaxel with/without wilforlide A pretreatment
# Assay type: cell-based
# Conditions: DU145-TxR; for viability at 1 pM / viability at 0.0001 µM / viability at 0.000333 µM / viability at 0.001 µM / viability at 0.00333 µM / viability at 0.01 µM / viability at 0.0333 µM / viability at 0.1 µM: 72 h; for A at 565 nm: background = 0.046
# Source text: FIG. 4 summarizes the data of Tables 18 and 19 in a graphical format.
# [1] = no wilforlide A pre-Tx, docetaxel 0.001 nM 72 h
# [2] = no wilforlide A pre-Tx, docetaxel 0.1 nM 72 h
# [3] = no wilforlide A pre-Tx, docetaxel 0.333 nM 72 h
# [4] = no wilforlide A pre-Tx, docetaxel 1 nM 72 h
# [5] = no wilforlide A pre-Tx, docetaxel 3.33 nM 72 h
# [6] = no wilforlide A pre-Tx, docetaxel 10 nM 72 h
# [7] = no wilforlide A pre-Tx, docetaxel 33.3 nM 72 h
# [8] = no wilforlide A pre-Tx, docetaxel 100 nM 72 h
# [9] = wilforlide A 2.5 μg/ml pre-Tx, docetaxel 0.001 nM 72 h
# [10] = wilforlide A 2.5 μg/ml pre-Tx, docetaxel 0.1 nM 72 h
# [11] = wilforlide A 2.5 μg/ml pre-Tx, docetaxel 0.333 nM 72 h
# [12] = wilforlide A 2.5 μg/ml pre-Tx, docetaxel 1 nM 72 h
# [13] = wilforlide A 2.5 μg/ml pre-Tx, docetaxel 3.33 nM 72 h
# [14] = wilforlide A 2.5 μg/ml pre-Tx, docetaxel 10 nM 72 h
# [15] = wilforlide A 2.5 μg/ml pre-Tx, docetaxel 33.3 nM 72 h
# [16] = wilforlide A 2.5 μg/ml pre-Tx, docetaxel 100 nM 72 h
smiles,measurement,setting,value
CC(=O)O[C@@]12CO[C@@H]1C[C@H](O)[C@@]1(C)C(=O)[C@H](O)C3=C(C)[C@@H](OC(=O)[C@H](O)[C@@H](NC(=O)OC(C)(C)C)c4ccccc4)C[C@@](O)([C@@H](OC(=O)c4ccccc4)[C@H]21)C3(C)C [docetaxel],viability at 1 pM,[1],100%
same,viability at 0.0001 µM,[2],104%
same,viability at 0.000333 µM,[3],99%
same,viability at 0.001 µM,[4],98.2%
same,viability at 0.00333 µM,[5],98.5%
same,viability at 0.01 µM,[6],101%
same,viability at 0.0333 µM,[7],99.2%
same,viability at 0.1 µM,[8],97.4%
same,viability at 1 pM,[9],100%
same,viability at 0.0001 µM,[10],104%
same,viability at 0.000333 µM,[11],102%
same,viability at 0.001 µM,[12],104%
same,viability at 0.00333 µM,[13],98.4%
same,viability at 0.01 µM,[14],102%
same,viability at 0.0333 µM,[15],94.1%
same,viability at 0.1 µM,[16],44.7%
same,mean A,[1],2.257
same,A at 565 nm,[1],2.285 and 2.199 and 2.289
same,mean A,[2],2.346
same,A at 565 nm,[2],2.354 and 2.413 and 2.272
same,mean A,[3],2.235
same,A at 565 nm,[3],2.281 and 2.251 and 2.175
same,mean A,[4],2.216
same,A at 565 nm,[4],2.279 and 2.233 and 2.137
same,mean A,[5],2.224
same,A at 565 nm,[5],2.207 and 2.230 and 2.236
same,mean A,[6],2.272
same,A at 565 nm,[6],2.254 and 2.359 and 2.203
same,mean A,[7],2.239
same,A at 565 nm,[7],2.145 and 2.270 and 2.303
same,mean A,[8],2.198
same,A at 565 nm,[8],2.153 and 2.224 and 2.217
same,mean A,[9],2.137
same,A at 565 nm,[9],2.092 and 2.151 and 2.170
same,mean A,[10],2.220
same,A at 565 nm,[10],2.248 and 2.263 and 2.151
same,mean A,[11],2.169
same,A at 565 nm,[11],2.187 and 2.102 and 2.218
same,mean A,[12],2.217
same,A at 565 nm,[12],2.177 and 2.229 and 2.246
same,mean A,[13],2.103
same,A at 565 nm,[13],2.064 and 2.090 and 2.155
same,mean A,[14],2.176
same,A at 565 nm,[14],2.171 and 2.204 and 2.155
same,mean A,[15],2.011
same,A at 565 nm,[15],2.086 and 2.018 and 1.930
same,mean A,[16],0.956
same,A at 565 nm,[16],0.987 and 0.926 and 0.957
